# From EP3352763B1 (priority 2015, dated 2017)
# Experiments:
# [1] = system: Influenzavirus A/Regensburg/D6/2009/H1N1; experiment: Screening of antiviral effect of test substances (Fig. 1); assay type: cell-based; conditions: for antivirale Aktivität: Fig. 1, result in words
# [2] = system: A/Regensburg/D6/2009/H1N1; assay type: cell-based, Influenzaviren; conditions: TC50/EC50, A/Regensburg/D6/2009/H1N1
# A/Victoria/3/75/H3N2 = assay type: cell-based, Influenzaviren
# [3] = system: A/Mississippi/3/2001/H1N1; assay type: cell-based, Influenzaviren; conditions: TC50/EC50, A/Mississippi/3/2001/H1N1
# Hantaviren = assay type: cell-based
# [4] = system: Influenza-Viren vom Stamm A/Regensburg/D6/2009/H1N1; assay type: cell-based
# in vitro [5] = conditions: dog, mdck
# in vitro [6] = conditions: monkey, vero cells
structure (smiles),measurement,setting,value
"O=C(O)c1cc(O)c(O)c(O)c1 [Gallussäure, reference compound]",antivirale Aktivität,[1],antivirale Aktivität
"O=C(/C=C/c1ccc(O)cc1)OC[C@H]1O[C@@H](Oc2c(-c3ccc(O)cc3)oc3cc(O)cc(O)c3c2=O)[C@H](O)[C@@H](O)[C@@H]1O [Tilirosid, Kaempferol-3-(6""-trans-p-coumaroyl)glucosid]",antivirale Aktivität,[1],höchste antivirale Aktivität
same,Reduktion der Viruslast,"[1]; Fig. 1, screening of substances",> 90%
same,Selektivitätsindex (S.I.),[2],433
same,Selektivitätsindex (S.I.),A/Victoria/3/75/H3N2,134
same,Selektivitätsindex (S.I.),[3],2.906
same,Wirkung gegen Hantaviren,Hantaviren,nicht gegen Hantaviren wirkt
same,antivirale Wirkung (Reduktion der Viruslast),[4],> 90%
same,antiviraler Effekt,[4],keinen antiviralen Effekt
same,Reduktion der Viruslast,[4]; pre-incubation of the viruses with Tilirosid,keiner Reduktion der Viruslast
same,TC50,A549-Zellen,1.862 µM
same,CC50,in vitro [5],932 µM
same,CC50,in vitro [6],126 µM
